For one assay, the target named is full-length human BTK (Homo sapiens (Human), UniProt Q06187). The assay is described as follows: Assay A: microfluidic off-chip mobility shift assay against BTK enzyme. The class given is biochemical.
For assay [1], the target named is BTK C481S (His-TEV-hsBTK(328-659)(C481S)) (Homo sapiens (Human), UniProt Q06187, C481S). The assay is described as follows: Assay B: microfluidic off-chip mobility shift assay against BTK C481S enzyme. The class given is biochemical. Conditions: BTK C481S mutant. A digest of the protocol: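 Substrate-to-phosphopeptide conversion quantified by microfluidic mobility shift with laser-induced fluorescence; IC50 and efficacy from log[inhibitor] vs. % activity.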

The test system of assay [2] is anti-IgM-induced expression of CD69 on CD19 positive cells (B cells) in human PBMCs. The assay is described as follows: Assay C: PBMC IC50 assay (anti-IgM-induced CD69 expression). It counts as cell-based. Conditions: anti-IgM stimulation. In a few lines: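 Freshly isolated human PBMCs (2.5×10^5/well) pretreated 1 h with compound, then stimulated overnight (~16-18 h) with goat F(ab′)2 anti-human IgM. CD69 on CD19+ B cells measured by flow cytometry; IC50 from percentage CD69+ B cells versus concentration.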

SMILES strings stand for the structures. Where only a bound is given, the exact number is not on record here.

Here are results for 21 compounds from US11098041B2 (Merck Patent GmbH, priority 2014, dated 2021).

BTK C481S (His-TEV-hsBTK(328-659)(C481S)), sequence (Q06187 328-659 C481S): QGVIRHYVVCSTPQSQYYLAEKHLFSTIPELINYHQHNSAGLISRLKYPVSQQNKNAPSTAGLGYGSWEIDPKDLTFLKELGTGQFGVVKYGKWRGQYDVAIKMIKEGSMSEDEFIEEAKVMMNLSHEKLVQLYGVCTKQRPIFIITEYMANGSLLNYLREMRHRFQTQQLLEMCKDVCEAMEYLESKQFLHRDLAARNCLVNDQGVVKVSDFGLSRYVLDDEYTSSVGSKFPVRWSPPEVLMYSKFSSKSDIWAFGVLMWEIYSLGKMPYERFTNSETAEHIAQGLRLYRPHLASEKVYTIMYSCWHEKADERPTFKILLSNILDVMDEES
full-length human BTK, sequence (Q06187 whole entry): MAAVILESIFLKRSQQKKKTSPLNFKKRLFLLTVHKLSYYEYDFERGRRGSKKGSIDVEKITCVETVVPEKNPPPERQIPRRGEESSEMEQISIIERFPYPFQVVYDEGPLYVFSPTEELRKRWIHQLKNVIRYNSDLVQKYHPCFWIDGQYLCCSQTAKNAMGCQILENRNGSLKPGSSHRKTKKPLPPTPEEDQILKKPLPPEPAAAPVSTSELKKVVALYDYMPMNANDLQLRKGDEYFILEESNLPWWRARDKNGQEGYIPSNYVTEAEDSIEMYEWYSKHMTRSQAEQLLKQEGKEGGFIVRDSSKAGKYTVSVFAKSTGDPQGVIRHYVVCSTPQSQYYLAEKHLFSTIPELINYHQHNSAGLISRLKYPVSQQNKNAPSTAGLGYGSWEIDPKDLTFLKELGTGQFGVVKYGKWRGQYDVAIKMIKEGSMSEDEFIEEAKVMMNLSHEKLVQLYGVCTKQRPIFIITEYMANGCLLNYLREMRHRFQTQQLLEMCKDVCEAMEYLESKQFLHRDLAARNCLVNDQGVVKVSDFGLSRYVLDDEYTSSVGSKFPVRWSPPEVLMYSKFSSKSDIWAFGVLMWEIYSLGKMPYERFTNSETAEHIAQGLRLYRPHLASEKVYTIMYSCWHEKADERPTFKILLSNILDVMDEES

Consider `Cn1cc(-c2nc3c(-c4cccc(NC(=O)c5ccc(C6CC6)nc5)c4CO)ccnc3[nH]2)cn1` [Example 49, 6-Cyclopropyl-N-[2-(hydroxymethyl)-3-[2-(1-methyl-1H-pyrazol-4-yl)-3H-imidazo[4,5-b]pyridin-7-yl]phenyl]pyridine-3-carboxamide], for which the values for the half-maximal inhibitory concentration (IC50) (on full-length human BTK; in assay [1]; in assay [2]) were below 100 nM, below 100 nM and 100 to 1000 nM, respectively.

In the case of `CN(C)c1ccc(-c2nc3c(-c4cccc(N5CCOc6cc(C7CC7)cc(F)c6C5=O)c4CO)ccnc3[nH]2)nc1` [Example 41, 8-cyclopropyl-4-(3-[2-[5-(dimethylamino)pyridin-2-yl]-3H-imidazo[4,5-b]pyridin-7-yl]-2-(hydroxymethyl)phenyl)-6-fluoro-2,3,4,5-tetrahydro-1,4-benzoxazepin-5-one], the half-inhibitory concentration (IC50) was below 100 nM on full-length human BTK, below 100 nM in assay [1] and 1000 to 5000 nM in assay [2].

As for `Cn1cc(-c2nc3nccc(-c4cccc(N5CCOc6cc(C7CC7)cc(F)c6C5=O)c4CO)c3[nH]2)cn1` [Example 42, 8-Cyclopropyl-6-fluoro-4-[2-(hydroxymethyl)-3-[2-(1-methyl-1H-pyrazol-4-yl)-1H-imidazo[4,5-b]pyridine-7-yl]phenyl]-2,3,4,5-tetrahydro-1,4-benzoxazepin-5-one], the IC50 at full-length human BTK was below 100 nM; in assay [1], below 100 nM; in assay [2] it was 100 to 1000 nM.

Take `CN1CC=C(c2ccc(-c3nc4c(-c5ccc(CNC(=O)c6noc(C(C)(C)C)n6)c(F)c5)ccnc4[nH]3)cc2)CC1` [Example 86, 5-tert-Butyl-N-[(2-fluoro-4-[2-[4-(1-methyl-1,2,3,6-tetrahydropyridin-4-yl)phenyl]-3H-imidazo[4,5-b]pyridin-7-yl]phenyl)methyl]-1,2,4-oxadiazole-3-carboxamide; Trifluoroacetic Acid]: the concentration for half-maximal inhibition (IC50) (at full-length human BTK; in assay [1]; in assay [2]) was below 100 nM in each case.

As for `CN(C)c1ccc(-c2nc3c(-c4cccc(N5CCOc6cc(C7CC7)cc(F)c6C5=O)c4CO)ccnc3[nH]2)cc1` [Example 39, 8-Cyclopropyl-4-(3-[2-[4-(dimethylamino)phenyl]-3H-imidazo[4,5-b]pyridin-7-yl]-2-(hydroxymethyl)phenyl)-6-fluoro-2,3,4,5-tetrahydro-1,4-benzoxazepin-5-one], the half-maximal inhibitory concentration (IC50) was below 100 nM on full-length human BTK, below 100 nM in assay [1] and 1000 to 5000 nM in assay [2].

On to `COc1ccc(-c2nc3c(-c4ccc(CN5CCOc6cc(C7CC7)cc(F)c6C5=O)c(F)c4)ccnc3[nH]2)nc1` [Example 40, 8-Cyclopropyl-6-fluoro-4-([2-fluoro-4-[2-(5-methoxypyridin-2-yl)-3H-imidazo[4,5-b]pyridin-7-yl]phenyl]methyl)-2,3,4,5-tetrahydro-1,4-benzoxazepin-5-one], for which the values for the IC50 (at full-length human BTK; in assay [1]; in assay [2]) were below 100 nM, below 100 nM and 100 to 1000 nM, respectively.

As to `CN1CCN(Cc2ccc(-c3nc4c(-c5ccc(CNC(=O)c6noc(C(C)(C)C)n6)c(F)c5)ccnc4[nH]3)cc2)CC1` [Example 71, 5-tert-Butyl-N-[[2-fluoro-4-(2-[4-[(4-methylpiperazin-1-yl)methyl]phenyl]-1H-imidazo[4,5-b]pyridin-7-yl)phenyl]methyl]-1,2,4-oxadiazole-3-carboxamide], the half-maximal inhibitory concentration (IC50) (at full-length human BTK; in assay [1]; in assay [2]) was below 100 nM in each case.

`Cn1cc(-c2nc3c(-c4ccc(CN5Cc6cc(C7CC7)sc6C5=O)c(F)c4)ccnc3[nH]2)cn1` [Example 93, 2-Cyclopropyl-5-([2-fluoro-4-[2-(1-methyl-1H-pyrazol-4-yl)-3H-imidazo[4,5-b]pyridin-7-yl]phenyl]methyl)-4H,5H,6H-thieno[2,3-c]pyrrol-6-one]: the half-maximal inhibitory concentration (IC50) on full-length human BTK was below 100 nM; in assay [1] it was below 100 nM; in assay [2] it was 100 to 1000 nM.

`CN1CC=C(c2nc3c(-c4ccc(CNC(=O)c5nnc(C(C)(C)C)o5)c(F)c4)ccnc3[nH]2)CC1` [Example 139, 5-tert-Butyl-[1,3,4]oxadiazole-2-carboxylic acid 2-fluoro-4-[2-(1-methyl-1,2,3,6-tetrahydro-pyridin-4-yl)-3H-imidazo[4,5-b]pyridin-7-yl]-benzylamide]: the values for the half-inhibitory concentration (IC50) (on full-length human BTK; in assay [1]; in assay [2]) were below 100 nM, below 100 nM and 1000 to 5000 nM, respectively.

Consider `Cn1cc(-c2nc3c(-c4ccc(C(C)(C)NC(=O)c5ccc(C(C)(C)C)cc5)c(F)c4)ccnc3[nH]2)cn1` [Example 106, 4-tert-Butyl-N-(1-{2-fluoro-4-[2-(1-methyl-1H-pyrazol-4-yl)-3H-imidazo[4,5-b]pyridin-7-yl]-phenyl}-1-methyl-ethyl)-benzamide], for which the concentration for half-maximal inhibition (IC50) is below 100 nM at full-length human BTK, 100 to 1000 nM in assay [1] and 100 to 1000 nM in assay [2].

Regarding `CC(C)(C)c1nc(C(=O)NCc2ccc(-c3ccnc4[nH]c(-c5ccc(C(O)CO)cn5)nc34)cc2F)no1` (stereo not drawn) [Example 76, 5-tert-Butyl-N-[(4-[2-[5-(1,2-dihydroxyethyl)pyridin-2-yl]-3H-imidazo[4,5-b]pyridin-7-yl]-2-fluorophenyl)methyl]-1,2,4-oxadiazole-3-carboxamide], the IC50 (at full-length human BTK; in assay [1]; in assay [2]) was below 100 nM in each case.

`CN(C)c1nc(C(=O)NCc2ccc(-c3ccnc4[nH]c(-c5cnn(C)c5)nc34)cc2F)no1` [Example 57, 5-(Dimethylamino)-N-(2-fluoro-4-(2-(1-methyl-1H-pyrazol-4-yl)-3H-imidazo[4,5-b]pyridin-7-yl)benzyl)-1,2,4-oxadiazole-3-carboxamide 2,2,2-trifluoroacetate]: the concentration for half-maximal inhibition (IC50) on full-length human BTK is below 100 nM; in assay [1], below 100 nM; in assay [2], 1000 to 5000 nM.

Consider `Cn1cc(-c2nc3c(-c4ccc(CNC(=O)c5ccc(C(C)(C)C)cc5)cc4)ccnc3[nH]2)cn1` [Example 110, 4-tert-Butyl-N-{4-[2-(1-methyl-1H-pyrazol-4-yl)-3H-imidazo[4,5-b]pyridin-7-yl]-benzyl}-benzamide], for which the 50% inhibitory concentration (IC50) was below 100 nM on full-length human BTK, below 100 nM in assay [1] and 100 to 1000 nM in assay [2].

With `Cn1cc(-c2nc3c(-c4cccc(NC(=O)c5cc6c(s5)CCCC6)c4CO)ccnc3[nH]2)cn1` [Example 50, N-[2-(hydroxymethyl)-3-[2-(1-methyl-1H-pyrazol-4-yl)-3H-imidazo[4,5-b]pyridin-7-yl]phenyl]-4,5,6,7-tetrahydro-1-benzothiophene-2-carboxamide], the IC50 was below 100 nM at full-length human BTK, below 100 nM in assay [1] and 100 to 1000 nM in assay [2].

As for `CC(C)(C)c1nnc(C(=O)NCc2ccc(-c3ccnc4[nH]c(C5=CCNCC5)nc34)cc2F)o1` [Example 140, 5-tert-Butyl-[1,3,4]oxadiazole-2-carboxylic acid 2-fluoro-4-[2-(1,2,3,6-tetrahydro-pyridin-4-yl)-3H-imidazo[4,5-b]pyridin-7-yl]-benzylamide], the figures for the IC50 (at full-length human BTK; in assay [1]; in assay [2]) were below 100 nM, below 100 nM and 1000 to 5000 nM, respectively.

Turning to `CC(C)(C)c1ccc(C(=O)NCc2ccc(-c3ccnc4[nH]c(-c5ccc(C6=CCNCC6)cc5)nc34)cc2F)cc1` [Example 66, 4-tert-Butyl-N-[(2-fluoro-4-[2-[4-(1,2,3,6-tetrahydropyridin-4-yl)phenyl]-3H-imidazo[4,5-b]pyridin-7-yl]phenyl)methyl]benzamide], the IC50 on full-length human BTK is below 100 nM; in assay [1], below 100 nM; in assay [2], 100 to 1000 nM.

In the case of `CN1CCN(Cc2ccc(-c3nc4c(-c5cccc(N6CCOc7cc(C8CC8)cc(F)c7C6=O)c5CO)ccnc4[nH]3)nc2)CC1` [Example 35, 8-Cyclopropyl-6-fluoro-4-[2-(hydroxymethyl)-3-(2-[5-[(4-methylpiperazin-1-yl)methyl]pyridin-2-yl]-3H-imidazo[4,5-b]pyridin-7-yl)phenyl]-2,3,4,5-tetrahydro-1,4-benzoxazepin-5-one], the IC50 is below 100 nM on full-length human BTK, below 100 nM in assay [1] and 100 to 1000 nM in assay [2].

As to `CN(C)c1ccc(-c2nc3c(-c4ccc(CNC(=O)c5nc(C(C)(C)C)no5)c(F)c4)ccnc3[nH]2)nc1` [Example 148, 3-(tert-butyl)-N-(4-(2-(5-(dimethylamino)pyridin-2-yl)-3H-imidazo[4,5-b]pyridin-7-yl)-2-fluorobenzyl)-1,2,4-oxadiazole-5-carboxamide], the IC50 (at full-length human BTK; in assay [1]; in assay [2]) was below 100 nM throughout.

With `Cn1cc(-c2nc3c(-c4ccc(CNC(=O)c5cc(C(C)(C)C)on5)c(F)c4)ccnc3[nH]2)cn1` [Example 67, 5-tert-Butyl-N-([2-fluoro-4-[2-(1-methyl-1H-pyrazol-4-yl)-3H-imidazo[4,5-b]pyridin-7-yl]phenyl]methyl)-1,2-oxazole-3-carboxamide], the IC50 (on full-length human BTK; in assay [1]; in assay [2]) was below 100 nM in each case.

On to `CN(C)c1ccc(-c2nc3c(-c4ccc(CNC(=O)N5CC(OC(C)(C)C)C5)c(F)c4)ccnc3[nH]2)nc1` [Example 90, 3-(tert-Butoxy)-N-[(4-[2-[5-(dimethylamino)pyridin-2-yl]-3H-imidazo[4,5-b]pyridin-7-yl]-2-fluorophenyl)methyl]azetidine-1-carboxamide], for which the half-inhibitory concentration (IC50) on full-length human BTK was below 100 nM; in assay [1] it was 100 to 1000 nM; in assay [2] it was 1000 to 5000 nM.

Consider `O=C1c2c(F)cc(C3CC3)cc2OCCN1c1cccc(-c2ccnc3[nH]c(-c4cccnc4)nc23)c1CO` [Example 2, 8-Cyclopropyl-6-fluoro-4-[2-(hydroxymethyl)-3-[2-(pyridin-3-yl)-3H-imidazo[4,5-b]pyridin-7-yl]phenyl]-2,3,4,5-tetrahydro-1,4-benzoxazepin-5-one], for which the figures for the concentration for half-maximal inhibition (IC50) (on full-length human BTK; in assay [1]; in assay [2]) were below 100 nM, below 100 nM and 1000 to 5000 nM, respectively.

In general, IC50 refers to the point on the concentration scale where inhibition reaches its midpoint.
